Data published in ChEMBL document CHEMBL4665648, “Potent and selective inhibitors of receptor-interacting protein kinase 1 that lack an aromatic back pocket group” (Bioorg Med Chem Lett, 2019).

What was measured:
[1] = target: MAP kinase-activated protein kinase 2 (Homo sapiens) (UniProt P49137); assay: Inhibition of recombinant human His-tagged full length MAPKAPK2 expressed in Escherichia coli expression system using Ser/Thr 04 as substrate at 10 uM incubated for 60 mins by Z'-lyte assay relative to control
[2] = target: Testis-specific serine/threonine-protein kinase 1 (Homo sapiens) (UniProt Q9BXA7); assay: Inhibition of recombinant human His-tagged full length TSSK1 expressed in baculovirus expression system using Ser/Thr 04 as substrate at 10 uM incubated for 60 mins by Z'-Lyte assay relative to control
Sequence of Testis-specific serine/threonine-protein kinase 1 (Homo sapiens) (Q9BXA7 whole entry, the tested form may be a part): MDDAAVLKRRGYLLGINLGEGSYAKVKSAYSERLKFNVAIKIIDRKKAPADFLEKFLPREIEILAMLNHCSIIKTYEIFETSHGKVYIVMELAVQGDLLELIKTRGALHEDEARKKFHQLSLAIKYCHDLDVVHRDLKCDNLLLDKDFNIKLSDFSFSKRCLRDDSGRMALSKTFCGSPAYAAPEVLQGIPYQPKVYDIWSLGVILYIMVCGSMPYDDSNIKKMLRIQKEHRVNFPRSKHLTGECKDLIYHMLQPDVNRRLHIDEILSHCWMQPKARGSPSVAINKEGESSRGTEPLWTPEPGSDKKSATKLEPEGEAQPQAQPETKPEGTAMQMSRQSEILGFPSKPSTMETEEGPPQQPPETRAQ

[3] = target: Dual specificity protein kinase CLK2 (Homo sapiens) (UniProt P49760); assay: Inhibition of recombinant human GST-tagged CLK2 (137 to 498 residues) expressed in baculovirus expression system using Ser/Thr 06 as substrate at 10 uM incubated for 60 mins by Z'-Lyte assay relative to control
[4] = target: Inhibitor of nuclear factor kappa-B kinase subunit alpha (Homo sapiens) (UniProt O15111); assay: Inhibition of recombinant human His-tagged full length IKKalpha expressed in baculovirus expression system at 10 uM incubated for 60 mins by Adapta assay relative to control
[5] = target: Insulin receptor (Homo sapiens) (UniProt P06213); assay: Inhibition of recombinant human GST-tagged InsR (1011 to 1382 residues) expressed in baculovirus expression system using Tyr 01 as substrate at 10 uM incubated for 60 mins by Z'-lyte assay relative to control
Sequence of Insulin receptor (Homo sapiens) (P06213 28-758 limits assumed): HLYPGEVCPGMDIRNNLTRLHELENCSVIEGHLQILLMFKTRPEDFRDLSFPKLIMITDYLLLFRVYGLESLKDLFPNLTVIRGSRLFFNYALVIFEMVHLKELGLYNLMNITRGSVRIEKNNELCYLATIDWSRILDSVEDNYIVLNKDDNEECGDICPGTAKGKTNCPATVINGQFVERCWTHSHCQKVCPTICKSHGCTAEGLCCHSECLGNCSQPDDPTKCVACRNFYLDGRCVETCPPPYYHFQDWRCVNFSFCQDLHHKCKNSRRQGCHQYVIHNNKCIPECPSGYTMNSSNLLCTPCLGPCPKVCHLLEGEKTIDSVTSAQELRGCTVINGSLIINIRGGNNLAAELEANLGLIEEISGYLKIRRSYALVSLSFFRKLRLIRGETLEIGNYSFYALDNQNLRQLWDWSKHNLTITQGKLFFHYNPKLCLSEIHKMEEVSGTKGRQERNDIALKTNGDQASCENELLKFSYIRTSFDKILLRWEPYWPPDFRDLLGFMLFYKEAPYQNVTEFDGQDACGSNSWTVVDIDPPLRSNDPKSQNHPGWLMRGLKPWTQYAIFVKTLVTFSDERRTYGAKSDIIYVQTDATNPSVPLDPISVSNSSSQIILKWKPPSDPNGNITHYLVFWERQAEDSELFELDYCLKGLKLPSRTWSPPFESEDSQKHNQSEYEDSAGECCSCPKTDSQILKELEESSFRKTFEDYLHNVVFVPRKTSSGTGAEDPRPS
Sequence of Insulin receptor (Homo sapiens) (P06213 763-1382 limits assumed): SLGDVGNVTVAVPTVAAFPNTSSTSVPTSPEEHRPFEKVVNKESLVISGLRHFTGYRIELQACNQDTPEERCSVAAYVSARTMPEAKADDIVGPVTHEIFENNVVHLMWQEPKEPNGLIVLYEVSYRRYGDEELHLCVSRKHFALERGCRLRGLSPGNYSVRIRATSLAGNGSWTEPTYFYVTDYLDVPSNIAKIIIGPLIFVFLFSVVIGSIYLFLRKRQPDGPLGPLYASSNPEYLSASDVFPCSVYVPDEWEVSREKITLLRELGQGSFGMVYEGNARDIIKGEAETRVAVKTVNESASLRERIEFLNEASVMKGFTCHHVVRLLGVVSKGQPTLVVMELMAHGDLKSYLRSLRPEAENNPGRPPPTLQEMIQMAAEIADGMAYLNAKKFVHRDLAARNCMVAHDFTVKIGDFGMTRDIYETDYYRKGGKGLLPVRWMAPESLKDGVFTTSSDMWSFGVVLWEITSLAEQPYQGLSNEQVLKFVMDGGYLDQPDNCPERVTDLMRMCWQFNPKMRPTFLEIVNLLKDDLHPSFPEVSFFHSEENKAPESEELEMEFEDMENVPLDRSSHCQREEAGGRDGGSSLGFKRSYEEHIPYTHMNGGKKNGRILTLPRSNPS

[6] = target: Serine/threonine-protein kinase mTOR (Homo sapiens) (UniProt P42345); assay: Inhibition of recombinant human GST-tagged mTOR (1360 to 2549 residues) expressed in Escherichia coli expression system using Ser/Thr 11 as substrate at 10 uM incubated for 60 mins by Z'-Lyte assay relative to control
[7] = target: Mast/stem cell growth factor receptor Kit (Homo sapiens) (UniProt P10721); assay: Inhibition of recombinant human His-tagged KIT (544 to 976 residues) expressed in baculovirus expression system using Tyr 01 as substrate at 10 uM incubated for 60 mins by Z'-lyte assay relative to control
[8] = target: Serine/threonine-protein kinase N1 (Homo sapiens) (UniProt Q16512); assay: Inhibition of recombinant human GST-tagged full length PRK1 expressed in baculovirus expression system using Ser/Thr 07 as substrate at 10 uM incubated for 60 mins by Z'-lyte assay relative to control
Sequence of Serine/threonine-protein kinase N1 (Homo sapiens) (Q16512 2-942 limits assumed): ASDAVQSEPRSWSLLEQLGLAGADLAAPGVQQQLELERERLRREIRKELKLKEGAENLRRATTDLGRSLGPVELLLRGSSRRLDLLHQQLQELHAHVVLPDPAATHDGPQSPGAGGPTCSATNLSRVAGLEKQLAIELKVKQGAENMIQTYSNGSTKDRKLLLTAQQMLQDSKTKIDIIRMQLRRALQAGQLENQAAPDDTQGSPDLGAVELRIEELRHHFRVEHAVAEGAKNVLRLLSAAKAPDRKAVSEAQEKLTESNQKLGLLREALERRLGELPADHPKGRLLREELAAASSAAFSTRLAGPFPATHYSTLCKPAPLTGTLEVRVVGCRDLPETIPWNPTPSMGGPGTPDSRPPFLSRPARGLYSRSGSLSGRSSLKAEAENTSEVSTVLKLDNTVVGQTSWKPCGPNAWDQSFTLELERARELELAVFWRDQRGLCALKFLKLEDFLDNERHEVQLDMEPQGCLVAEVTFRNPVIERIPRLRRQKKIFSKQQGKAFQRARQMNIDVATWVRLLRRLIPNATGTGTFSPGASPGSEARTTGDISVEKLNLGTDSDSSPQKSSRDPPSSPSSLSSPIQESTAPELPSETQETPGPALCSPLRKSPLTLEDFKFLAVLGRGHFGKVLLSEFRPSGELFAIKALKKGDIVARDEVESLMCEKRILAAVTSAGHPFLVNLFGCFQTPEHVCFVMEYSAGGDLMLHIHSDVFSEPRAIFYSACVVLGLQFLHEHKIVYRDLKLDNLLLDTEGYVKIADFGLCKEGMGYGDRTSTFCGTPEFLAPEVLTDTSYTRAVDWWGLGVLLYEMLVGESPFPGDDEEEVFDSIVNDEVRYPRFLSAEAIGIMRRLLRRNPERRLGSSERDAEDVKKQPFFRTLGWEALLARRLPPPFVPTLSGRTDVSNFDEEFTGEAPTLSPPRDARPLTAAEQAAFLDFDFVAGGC

[9] = target: Mitogen-activated protein kinase 9 (Homo sapiens) (UniProt P45984); assay: Inhibition of recombinant human His-tagged full length JNK2 expressed in baculovirus expression system using Ser/Thr 04 as substrate at 10 uM incubated for 60 mins by Z'-lyte assay relative to control
Sequence of Mitogen-activated protein kinase 9 (Homo sapiens) (P45984 whole entry, looked up): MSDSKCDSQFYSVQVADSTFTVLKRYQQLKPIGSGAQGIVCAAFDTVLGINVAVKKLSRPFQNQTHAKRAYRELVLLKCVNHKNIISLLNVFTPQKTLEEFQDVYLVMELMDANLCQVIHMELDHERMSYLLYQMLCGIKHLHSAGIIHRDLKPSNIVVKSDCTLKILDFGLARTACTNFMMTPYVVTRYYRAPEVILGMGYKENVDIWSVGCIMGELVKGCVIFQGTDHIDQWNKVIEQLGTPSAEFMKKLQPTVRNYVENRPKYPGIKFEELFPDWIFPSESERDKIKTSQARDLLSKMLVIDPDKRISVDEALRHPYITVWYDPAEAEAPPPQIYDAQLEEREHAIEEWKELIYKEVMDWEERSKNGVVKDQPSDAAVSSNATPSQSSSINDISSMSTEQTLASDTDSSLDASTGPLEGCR

[10] = target: NUAK family SNF1-like kinase 1 (Homo sapiens) (UniProt O60285); assay: Inhibition of recombinant human His-tagged full length ARK5 expressed in baculovirus expression system using CHKtide as substrate at 10 uM incubated for 60 mins by Adapta assay relative to control
[11] = target: Casein kinase I isoform gamma-1 (Homo sapiens) (UniProt Q9HCP0); assay: Inhibition of recombinant human GST-tagged full length CK1gamma1 expressed in baculovirus expression system using Ser/Thr 05 as substrate at 10 uM incubated for 60 mins by Z'-Lyte assay relative to control
[12] = target: Casein kinase I isoform delta (Homo sapiens) (UniProt P48730); assay: Inhibition of recombinant human GST-tagged full length CK1delta expressed in baculovirus expression system using Ser/Thr 11 as substrate at 10 uM incubated for 60 mins by Z'-Lyte assay relative to control
[13] = target: Tyrosine-protein kinase JAK1 (Homo sapiens) (UniProt P23458); assay: Inhibition of recombinant human GST-tagged JAK1 (866 to 1154 residues) expressed in baculovirus expression system using Tyr 06 as substrate at 10 uM incubated for 60 mins by Z'-lyte assay relative to control
Sequence of Tyrosine-protein kinase JAK1 (Homo sapiens) (P23458 whole entry, the tested form may be a part): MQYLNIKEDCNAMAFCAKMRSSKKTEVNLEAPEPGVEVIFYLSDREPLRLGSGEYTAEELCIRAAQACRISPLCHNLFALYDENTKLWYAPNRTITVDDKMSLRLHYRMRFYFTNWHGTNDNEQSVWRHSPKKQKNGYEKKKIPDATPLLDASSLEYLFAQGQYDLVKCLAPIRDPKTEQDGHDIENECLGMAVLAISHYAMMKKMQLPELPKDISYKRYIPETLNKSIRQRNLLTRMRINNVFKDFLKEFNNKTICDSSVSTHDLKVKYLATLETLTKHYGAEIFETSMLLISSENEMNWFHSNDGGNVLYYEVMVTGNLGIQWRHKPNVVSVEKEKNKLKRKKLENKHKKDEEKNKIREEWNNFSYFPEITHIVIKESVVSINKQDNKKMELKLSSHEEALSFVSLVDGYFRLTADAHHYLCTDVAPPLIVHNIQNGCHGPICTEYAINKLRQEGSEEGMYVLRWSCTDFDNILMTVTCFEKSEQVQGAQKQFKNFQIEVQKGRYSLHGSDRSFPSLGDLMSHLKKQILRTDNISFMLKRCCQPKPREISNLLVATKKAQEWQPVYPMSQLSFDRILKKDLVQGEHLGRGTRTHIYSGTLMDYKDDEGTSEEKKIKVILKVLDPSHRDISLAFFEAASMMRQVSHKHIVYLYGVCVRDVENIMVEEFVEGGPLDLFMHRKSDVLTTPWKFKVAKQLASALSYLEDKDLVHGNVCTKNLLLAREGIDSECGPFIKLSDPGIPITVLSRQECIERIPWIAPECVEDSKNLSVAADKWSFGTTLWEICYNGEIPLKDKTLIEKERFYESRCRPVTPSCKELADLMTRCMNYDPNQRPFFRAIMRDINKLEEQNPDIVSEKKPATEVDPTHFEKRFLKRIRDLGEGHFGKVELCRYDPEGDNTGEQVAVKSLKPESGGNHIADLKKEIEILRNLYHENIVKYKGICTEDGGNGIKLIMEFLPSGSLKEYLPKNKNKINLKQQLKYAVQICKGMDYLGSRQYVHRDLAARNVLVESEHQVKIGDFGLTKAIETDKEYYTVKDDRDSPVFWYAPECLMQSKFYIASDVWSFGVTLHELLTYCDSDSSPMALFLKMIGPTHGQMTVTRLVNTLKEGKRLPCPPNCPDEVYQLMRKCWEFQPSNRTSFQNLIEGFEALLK

[14] = target: Tyrosine-protein kinase TXK (Homo sapiens) (UniProt P42681); assay: Inhibition of recombinant human N-terminal GST-tagged TXK (260 to 527 residues) expressed in baculovirus expression system using Tyr 06 as substrate at 10 uM incubated for 60 mins by Z'-Lyte assay relative to control
[15] = target: Eukaryotic elongation factor 2 kinase (Homo sapiens) (UniProt O00418); assay: Inhibition of recombinant human GST-tagged full length EEF2K expressed in Escherichia coli expression system using Ser/Thr 24 as substrate at 10 uM incubated for 60 mins by Z'-Lyte assay relative to control
[16] = target: G protein-coupled receptor kinase 5 (Homo sapiens) (UniProt P34947); assay: Inhibition of recombinant human GST-tagged full length GRK5 expressed in baculovirus expression system using Ser/Thr 16 as substrate at 10 uM incubated for 60 mins by Z'-Lyte assay relative to control
[17] = target: Maternal embryonic leucine zipper kinase (Homo sapiens) (UniProt Q14680); assay: Inhibition of recombinant human GST-tagged MELK (1 to 340 residues) expressed in baculovirus expression system using Ser/Thr 17 as substrate at 10 uM incubated for 60 mins by Z'-lyte assay relative to control
[18] = target: Ribosomal protein S6 kinase alpha-3 (Homo sapiens) (UniProt P51812); assay: Inhibition of recombinant human His-tagged full length RSK2 expressed in baculovirus expression system using Ser/Thr 06 as substrate at 10 uM incubated for 60 mins by Z'-Lyte assay relative to control
[19] = target: Tyrosine-protein kinase Yes (Homo sapiens) (UniProt P07947); assay: Inhibition of recombinant human GST-tagged full length YES expressed in baculovirus expression system using Tyr 02 as substrate at 10 uM incubated for 60 mins by Z'-Lyte assay relative to control
Sequence of Tyrosine-protein kinase Yes (Homo sapiens) (P07947 2-543 limits assumed): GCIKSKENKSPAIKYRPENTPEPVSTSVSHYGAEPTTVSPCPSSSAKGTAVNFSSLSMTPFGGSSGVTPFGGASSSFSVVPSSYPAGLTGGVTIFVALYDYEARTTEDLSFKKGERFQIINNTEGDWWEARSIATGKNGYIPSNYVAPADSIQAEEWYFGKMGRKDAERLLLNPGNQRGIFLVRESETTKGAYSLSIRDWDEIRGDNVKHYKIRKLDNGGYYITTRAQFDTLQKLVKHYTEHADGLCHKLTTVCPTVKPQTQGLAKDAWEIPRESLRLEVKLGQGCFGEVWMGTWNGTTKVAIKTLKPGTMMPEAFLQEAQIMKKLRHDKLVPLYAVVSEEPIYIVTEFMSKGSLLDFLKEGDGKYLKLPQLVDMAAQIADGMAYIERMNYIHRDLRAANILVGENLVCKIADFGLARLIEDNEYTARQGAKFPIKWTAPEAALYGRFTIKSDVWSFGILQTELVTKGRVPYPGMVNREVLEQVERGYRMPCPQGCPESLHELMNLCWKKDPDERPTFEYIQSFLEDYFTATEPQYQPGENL

[20] = target: Receptor tyrosine-protein kinase erbB-2 (Homo sapiens) (UniProt P04626); assay: Inhibition of recombinant human His-tagged ERBB2 (676 to 1255 residues) expressed in baculovirus expression system using Tyr 06 as substrate at 10 uM incubated for 60 mins by Z'-Lyte assay relative to control
[21] = target: Serine/threonine-protein kinase 26 (Homo sapiens) (UniProt Q9P289); assay: Inhibition of recombinant human GST-tagged full length MST4 expressed in baculovirus expression system using Ser/Thr 07 as substrate at 10 uM incubated for 60 mins by Z'-lyte assay relative to control
[22] = Volume of distribution in Sprague-Dawley rat at 0.5 mg/kg, iv or 2 mg/kg, po; format: ADME, organism-based; conditions: in vivo
[23] = Clearance in Sprague-Dawley rat at 0.5 mg/kg, iv or 2 mg/kg, po; format: ADME, organism-based; conditions: in vivo
[24] = target: Protein kinase C delta type (Homo sapiens) (UniProt Q05655); assay: Inhibition of recombinant human GST-tagged full length PKCdelta expressed in insect expression system using Ser/Thr 07 as substrate at 10 uM incubated for 60 mins by Z'-lyte assay relative to control
[25] = target: Ribosomal protein S6 kinase alpha-1 (Homo sapiens) (UniProt Q15418); assay: Inhibition of recombinant human His-tagged full length RSK1 expressed in baculovirus expression system using Ser/Thr 06 as substrate at 10 uM incubated for 60 mins by Z'-Lyte assay relative to control

Question: For `CN1C(=O)[C@@H](NC(=O)c2n[nH]c3ncc(C(F)(F)C(F)(F)F)cc23)COc2ccccc21`, which inhibition [1] is on record?
Answer: The inhibition was 4%.

Question: What about the inhibition [2] of the same molecule?
Answer: The inhibition was 0%.

Question: And the inhibition [3]?
Answer: Its inhibition is 24%.

Question: And the inhibition [4]?
Answer: Its inhibition is -4%.

Question: What about the inhibition [5] of the same molecule?
Answer: The inhibition was 6%.

Question: What about the inhibition [6] of the same molecule?
Answer: The inhibition was 1.5%.

Question: And the inhibition [7]?
Answer: The inhibition was -5.5%.

Question: And the inhibition [8]?
Answer: Its inhibition is 1%.

Question: And the inhibition [9]?
Answer: The inhibition was 0.5%.

Question: What about the inhibition [10] of the same molecule?
Answer: The inhibition was 8.5%.

Question: What about the inhibition [11] of the same molecule?
Answer: Its inhibition is 5%.

Question: What about the inhibition [12] of the same molecule?
Answer: Its inhibition is 1%.

Question: What about the inhibition [13] of the same molecule?
Answer: The inhibition was 5%.

Question: And the inhibition [14]?
Answer: Its inhibition is 8.5%.

Question: What about the inhibition [15] of the same molecule?
Answer: The inhibition was 6%.

Question: And the inhibition [16]?
Answer: The inhibition was 7.5%.

Question: And the inhibition [17]?
Answer: The inhibition was -6%.

Question: What about the inhibition [18] of the same molecule?
Answer: The inhibition was 2%.

Question: What about the inhibition [19] of the same molecule?
Answer: The inhibition was 2.5%.

Question: What about the inhibition [20] of the same molecule?
Answer: Its inhibition is 2%.

Question: What about the inhibition [21] of the same molecule?
Answer: Its inhibition is 8.5%.

Question: What about the Vd [22] of the same molecule?
Answer: Its Vd is 2.8 L/kg.

Question: And the clearance [23]?
Answer: The clearance was 7.1 mL/min/kg.

Question: What about the inhibition [24] of the same molecule?
Answer: The inhibition was 0.5%.

Question: And the inhibition [25]?
Answer: Its inhibition is 8%.
